How the values were obtained:
LU99 xenograft tumors [1] = assay: In vivo combination study (LU99 model), Example 1; design: species or system female nu/nu mice; settings: MRTX1719, ABT-263, ABT-199 each 100 mg/kg PO QD, alone or combined
Source text: (§1) Immunodeficient female nu/nu mice were implanted with 5×10^6 LU99 cancer cells in 50% Matrigel. Tumor volume measurements were collected using calipers and determined utilizing the formula 0.5×L×W^2 in which L refers to length and W refers to width of each tumor. When tumors reached approximately 125-150 mm^3, animals were randomized to receive A) vehicle, B) a PRMT5 inhibitor, C) navitoclax (ABT-263), D) venetoclax (ABT-199), E) A-1331852, F) the PRMT5 inhibitor and navitoclax, F) the PRMT5 inhibitor and venetoclax, or G) the PRMT5 inhibitor and A-1331852 all administered orally (PO) with the indicated dose and schedule for 20-34 days. Tumor volume was measured twice a week (n=5/treatment group). Average tumor volume and standard error of the mean was calculated and plotted at each study day using GraphPad Prism.
(§2) The PRMT5 inhibitor was MRTX1719 administered at 100 mg/kg once a day (QD). MRTX1719 is (2M)-2-(4-(4-(aminomethyl)-1-oxo-1,2-dihydrophthalazin-6-yl)-1-methyl-1H-pyrazol-5-yl)-4-chloro-6-cyclopropoxy-3-fluorobenzonitrile, disclosed as Example 16-8 at p. 307 of the international patent publication No. WO 2021/050915 A1, published 18 Mar. 2021, incorporated by reference in its entirety.
The BCL-2 family inhibitors used in this example, ABT-199 (venetoclax) and ABT-263 (navitoclax), were administered at 100 mg/kg once a day (QD) and supplied by Selleck Chemicals (Houston, TX).

LU99 xenograft tumors [2] = assay: In vivo combination study (LU99 model), Example 4; design: species or system female nu/nu mice; settings: MRTX1719 100 mg/kg PO QD, A-1331852 25 mg/kg PO BID, alone or combined
Source text: as §1
Example 4 was carried out according to the in vivo study procedure described above in Example 1.
as §2, with “entirety. The BCL-2 family inhibitor, A-1331852 was administered at 25 mg/kg twice a day (BID) and synthesized at Wuxi AppTec (Wuhan, China).” for “entirety.”

SU8686 = assay: In vitro combination synergy, SU8686 (Cell-Titer Glo); format: cell-based; settings: combined with exemplary PRMT5 inhibitor, 120 h, sum of Loewe, Bliss, HSA and ZIP scores
Method: (§3) A panel of MTAP-deleted cancer cell lines was assembled to determine whether combining BCL-2 family inhibitors with exemplary PRMT5 inhibitors disclosed herein results in synergistic activity.
(§4) [Assays for determining the synergy score for the pairwise combinations for each cell line were performed in triplicate. 384 or 96-well plates plus additional wells of a separate 384 or 96-well control plate for determining baseline luminescence were seeded with cells of a particular MTAP-deleted cell line in a suitable growth medium for that cell line, e.g., RPMI 1640 medium supplemented with 10% FBS and any cell line specific reagents needed for growth. The plates were incubated overnight at 37 °C in a 5% CO2 atmosphere.
(§5) To each of the designated baseline wells, Cell-Titer Glo reagent (CTG; Promega Corporation) was added to each well and the plates were incubated for 20 min shaking at room temperature. Baseline luminescence was quantitated using a BMG ClarioStar multimode plate reader according to the manufacturer's instructions.
(§6) A series of 1000× drug dilutions in 100% DMSO was prepared that includes a 9-point single agent 3-fold dilution of the exemplary PRMT5 inhibitor (of the type described in WO2021/050915) with a top dose of 3000 nM (and a 6-point single agent 5-fold dilution of the BCL-2 family inhibitor with a top dose of 3000 nM as reference standards.
(§7) A 10× intermediate dosing plate was prepared in serum free medium that contains arrayed single agent dilutions of exemplary PRMT5 inhibitor (of the type described in WO2021/050915) and or the BCL-2 family inhibitor. In addition, a matrix of 54 dilution combinations of exemplary PRMT5 inhibitor (of the type described in WO2021/050915) and the BCL-2 family inhibitor was prepared as test samples.
(§8) To each corresponding well of the 384-well plates seeded with the appropriate cell line above, 10× single agent and the 54 combinations of the dose matrix was added and the plates were incubated for 120 hours at 37 °C in 5% CO2 atmosphere. Cell-Titer Glo reagent (CTG) was added to each test well, the plates were incubated for 20 min shaking at room temperature, and luminescence was quantitated using a BMG ClarioStar multimode plate reader according to the manufacturer's instructions. To normalize test samples, the determined baseline luminescence was subtracted from each test sample prior to analysis and mean values are calculated from replicate samples.
(§9) The output of the data from each mathematical model is the assignment of a relative synergy score. The data reported in Table 6 are the aggregate sum of the Loewe additivity, Bliss independence, Highest Single Agent and ZIP synergy scores (“Composite Synergy Score”).

H2452 = assay: In vitro combination synergy, H2452 (Cell-Titer Glo); format: cell-based; settings: combined with exemplary PRMT5 inhibitor, 120 h, sum of Loewe, Bliss, HSA and ZIP scores
Method: as §3, §4, §5, §6, §7, §8, §9

SW1573 = assay: In vitro combination synergy, SW1573 (Cell-Titer Glo); format: cell-based; settings: combined with exemplary PRMT5 inhibitor, 120 h, sum of Loewe, Bliss, HSA and ZIP scores
Method: as §3, §4, §5, §6, §7, §8, §9

Mero14 = assay: In vitro combination synergy, Mero14 (Cell-Titer Glo); format: cell-based; settings: combined with exemplary PRMT5 inhibitor, 120 h, sum of Loewe, Bliss, HSA and ZIP scores
Method: as §3, §4, §5, §6, §7, §8, §9

HCC4006 = assay: In vitro combination synergy, HCC4006 (Cell-Titer Glo); format: cell-based; settings: combined with exemplary PRMT5 inhibitor, 120 h, sum of Loewe, Bliss, HSA and ZIP scores
Method: as §3, §4, §5, §6, §7, §8, §9

Mero84 = assay: In vitro combination synergy, Mero84 (Cell-Titer Glo); format: cell-based; settings: combined with exemplary PRMT5 inhibitor, 120 h, sum of Loewe, Bliss, HSA and ZIP scores
Method: as §3, §4, §5, §6, §7, §8, §9

Miapaca2 = assay: In vitro combination synergy, Miapaca2 (Cell-Titer Glo); format: cell-based; settings: combined with exemplary PRMT5 inhibitor, 120 h, sum of Loewe, Bliss, HSA and ZIP scores
Method: as §3, §4, §5, §6, §7, §8, §9

RT4 = assay: In vitro combination synergy, RT4 (Cell-Titer Glo); format: cell-based; settings: combined with exemplary PRMT5 inhibitor, 120 h, sum of Loewe, Bliss, HSA and ZIP scores
Method: as §3, §4, §5, §6, §7, §8, §9

H2228 = assay: In vitro combination synergy, H2228 (Cell-Titer Glo); format: cell-based; settings: combined with exemplary PRMT5 inhibitor, 120 h, sum of Loewe, Bliss, HSA and ZIP scores
Method: as §3, §4, §5, §6, §7, §8, §9

LU99 = assay: In vitro combination synergy, LU99 (Cell-Titer Glo); format: cell-based; settings: combined with exemplary PRMT5 inhibitor, 120 h, sum of Loewe, Bliss, HSA and ZIP scores
Method: as §3, §4, §5, §6, §7, §8, §9

A549 = assay: In vitro combination synergy, A549 (Cell-Titer Glo); format: cell-based; settings: combined with exemplary PRMT5 inhibitor, 120 h, sum of Loewe, Bliss, HSA and ZIP scores
Method: as §3, §4, §5, §6, §7, §8, §9

H1650 = assay: In vitro combination synergy, H1650 (Cell-Titer Glo); format: cell-based; settings: combined with exemplary PRMT5 inhibitor, 120 h, sum of Loewe, Bliss, HSA and ZIP scores
Method: as §3, §4, §5, §6, §7, §8, §9

Cn1ncc(-c2ccc3c(=O)[nH]nc(CN)c3c2)c1-c1c(F)c(Cl)cc(OC2CC2)c1C#N (atropisomer, axis not shown; (M)) [MRTX1719, (2M)-2-(4-(4-(aminomethyl)-1-oxo-1,2-dihydrophthalazin-6-yl)-1-methyl-1H-pyrazol-5-yl)-4-chloro-6-cyclopropoxy-3-fluorobenzonitrile]
Average Tumor Volume (LU99 xenograft tumors [1]; day 3): 215 mm^3 | Average Tumor Volume (LU99 xenograft tumors [1]; day 6): 236 mm^3 | Average Tumor Volume (LU99 xenograft tumors [1]; day 10): 236 mm^3 | Average Tumor Volume (LU99 xenograft tumors [1]; day 13): 260 mm^3 | Average Tumor Volume (LU99 xenograft tumors [1]; day 17): 282 mm^3 | Average Tumor Volume (LU99 xenograft tumors [1]; day 20): 302 mm^3 | Average Tumor Volume (LU99 xenograft tumors [1]; day −1): 153 mm^3 | Average Tumor Volume (LU99 xenograft tumors [2]; day 2): 221 mm^3 | Average Tumor Volume (LU99 xenograft tumors [2]; day 6): 229 mm^3 | Average Tumor Volume (LU99 xenograft tumors [2]; day 9): 232 mm^3 | Average Tumor Volume (LU99 xenograft tumors [2]; day 14): 268 mm^3 | Average Tumor Volume (LU99 xenograft tumors [2]; day 16): 296 mm^3 | Average Tumor Volume (LU99 xenograft tumors [2]; day 20): 360 mm^3 | Average Tumor Volume (LU99 xenograft tumors [2]; day −1): 137 mm^3

Cc1c(-c2ccc(N3CCc4cccc(C(=O)Nc5nc6ccccc6s5)c4C3)nc2C(=O)O)cnn1CC12CC3CC(CC(C3)C1)C2 [A-1331852]
Composite Synergy Score (SU8686): 50 | Composite Synergy Score (H2452): 42 | Composite Synergy Score (SW1573): 50 | Average Tumor Volume (LU99 xenograft tumors [2]; day 2): 217 mm^3 | Average Tumor Volume (LU99 xenograft tumors [2]; day 6): 393 mm^3 | Average Tumor Volume (LU99 xenograft tumors [2]; day 9): 547 mm^3 | Average Tumor Volume (LU99 xenograft tumors [2]; day 14): 960 mm^3 | Average Tumor Volume (LU99 xenograft tumors [2]; day 16): 1228 mm^3 | Average Tumor Volume (LU99 xenograft tumors [2]; day 20): 1331 mm^3 | Average Tumor Volume (LU99 xenograft tumors [2]; day −1): 137 mm^3 | Composite Synergy Score (Mero14): 28 | Composite Synergy Score (HCC4006): 63 | Composite Synergy Score (Mero84): 0 | Composite Synergy Score (Miapaca2): 70 | Composite Synergy Score (RT4): 40 | Composite Synergy Score (H2228): 36 | Composite Synergy Score (LU99): 64 | Composite Synergy Score (A549): 42 | Composite Synergy Score (H1650): 62

CC1(C)CCC(c2ccc(Cl)cc2)=C(CN2CCN(c3ccc(C(=O)NS(=O)(=O)c4ccc(N[C@H](CCN5CCOCC5)CSc5ccccc5)c(S(=O)(=O)C(F)(F)F)c4)cc3)CC2)C1 [ABT-263, navitoclax]
Composite Synergy Score (SU8686): 12 | Composite Synergy Score (H2452): −20 | Composite Synergy Score (SW1573): 14 | Average Tumor Volume (LU99 xenograft tumors [1]; day 3): 236 mm^3 | Average Tumor Volume (LU99 xenograft tumors [1]; day 6): 359 mm^3 | Average Tumor Volume (LU99 xenograft tumors [1]; day 10): 558 mm^3 | Average Tumor Volume (LU99 xenograft tumors [1]; day 13): 737 mm^3 | Average Tumor Volume (LU99 xenograft tumors [1]; day 17): 1042 mm^3 | Average Tumor Volume (LU99 xenograft tumors [1]; day 20): 1237 mm^3 | Average Tumor Volume (LU99 xenograft tumors [1]; day −1): 153 mm^3 | Composite Synergy Score (Mero14): 18 | Composite Synergy Score (HCC4006): 23 | Composite Synergy Score (Mero84): −4 | Composite Synergy Score (Miapaca2): 16 | Composite Synergy Score (RT4): 24 | Composite Synergy Score (H2228): 24 | Composite Synergy Score (LU99): 41 | Composite Synergy Score (A549): 23 | Composite Synergy Score (H1650): 32

From US20260355188A1, “COMBINATION THERAPIES USING PRMT5 INHIBITORS AND BCL-2 FAMILY INHIBITORS FOR THE TREATMENT OF CANCER” (MIRATI THERAPEUTICS, INC., priority 2022, published 2026)
